These results are taken from patent publication US10155021B2, “Antimicrobial 4-oxoquinolizines” (Emergent Product Development Gaithersburg Inc., priority 2011, dated 2018).

Broadly, the MBC is the smallest concentration meeting the test's criterion for killing. By MIC is commonly meant the least concentration at which growth counts as inhibited.

Assay [1] deals with A. baumannii A329. Kind of assay: MIC without and with sub-inhibitory polymyxin B (Example 4). It counts as cell-based, Acinetobacter baumannii.
Assay [2] has as its system A. baumannii A472. The assay is described as above. It counts as cell-based, Acinetobacter baumannii.
Another assay deals with A. baumannii ATCC 19606. Kind of assay: Preliminary MBC without and with sub-inhibitory polymyxin B (Example 4). To be noted: Acinetobacter baumannii, ATCC19606, A. baumannii ATCC 19606, without polymyxin B, preliminary MBC, read-out: MBC without PB. It counts as cell-based, Acinetobacter baumannii.
In assay [3] the test system is resistant strains of A. baumannii and one strain of Acinetobacter sp. Kind of assay: MIC without and with sub-inhibitory polymyxin B, whole panel / MIC ranges (Example 4; also strains not listed separately). It counts as cell-based.
Assay [4] concerns Acinetobacter sp. (H064200250). The assay is described as follows: MIC without and with sub-inhibitory polymyxin B (Example 4). The format is cell-based. To be noted: Acinetobacter, without polymyxin B, read-out: MIC without PB.
For assay [5], the system named is A. baumannii A473. The description is as above. It counts as cell-based, Acinetobacter baumannii.
In assay [6] the test system is 11 strains of A. baumannii and one strain of Acinetobacter sp. Kind of assay: Preliminary MBC without and with sub-inhibitory polymyxin B, whole panel (Example 4; also strains not listed separately). Particulars: Acinetobacter baumannii, A. baumannii A14, without polymyxin B, 2nd experiment, read-out: MBC without PB. The format is cell-based.
Assay [7] concerns A. baumannii A387. Kind of assay: MIC without and with sub-inhibitory polymyxin B (Example 4). The format is cell-based, Acinetobacter baumannii.
The subject of assay [8] is Acinetobacter sp. (H064200250). Kind of assay: Preliminary MBC without and with sub-inhibitory polymyxin B (Example 4). The format is cell-based. To be noted: Acinetobacter, without polymyxin B, preliminary MBC, read-out: MBC without PB. How it is done:
The plates were incubated for 18-20 hours at 37° C. The MBC was read as the lowest concentration at which colony growth was ca. 90% less than the positive control (i.e. usually where single colonies or no colonies were observed).

Assay [9] has as its system Acinetobacter spp. H064200250. The assay is described as follows: MIC determination for Acinetobacter strains (Example 3). To be noted: LEV R, CIP R, MRP R, IMP I. The format is cell-based, Acinetobacter sp.
For assay [10], the system named is A. baumannii J2. Kind of assay: MIC without and with sub-inhibitory polymyxin B (Example 4). It counts as cell-based, Acinetobacter baumannii. To be noted: Acinetobacter baumannii, J2, A. baumannii J2; without polymyxin B; 1st experiment; read-out: MIC without PB.
Assay [11] deals with A. baumannii A329. Kind of assay: Preliminary MBC without and with sub-inhibitory polymyxin B (Example 4). The format is cell-based, Acinetobacter baumannii. To be noted: Acinetobacter baumannii, A329, A. baumannii A329, without polymyxin B, 1st experiment, read-out: MBC without PB.
In assay [12] the test system is A. baumannii A387. Described as above. It counts as cell-based, Acinetobacter baumannii. To be noted: Acinetobacter baumannii, A387, A. baumannii A387, without polymyxin B, 1st experiment, read-out: MBC without PB.
Assay [13] deals with A. baumannii A489. Kind of assay: MIC without and with sub-inhibitory polymyxin B (Example 4). The format is cell-based, Acinetobacter baumannii. Particulars: Acinetobacter baumannii, A489, A. baumannii A489; without polymyxin B; 1st experiment; read-out: MIC without PB.
The subject of assay [14] is A. baumannii A473. Kind of assay: Preliminary MBC without and with sub-inhibitory polymyxin B (Example 4). The format is cell-based, Acinetobacter baumannii. Particulars: Acinetobacter baumannii, A473, A. baumannii A473, without polymyxin B, 1st experiment, read-out: MBC without PB.
The subject of assay [15] is A. baumannii A401. Kind of assay: MIC without and with sub-inhibitory polymyxin B (Example 4). The format is cell-based, Acinetobacter baumannii. To be noted: Acinetobacter baumannii, A401, A baumannii A 401; without polymyxin B; 1st experiment; read-out: MIC without PB.
Assay [16] deals with A. baumannii A401. Kind of assay: Preliminary MBC without and with sub-inhibitory polymyxin B (Example 4). To be noted: Acinetobacter baumannii, A401, A baumannii A 401; without polymyxin B; preliminary MBC; 1st experiment; read-out: MBC without PB. It counts as cell-based, Acinetobacter baumannii.
The subject of assay [17] is A. baumannii A472. Described as above. It counts as cell-based, Acinetobacter baumannii. Particulars: Acinetobacter baumannii, A472, A. baumannii A472, without polymyxin B, 1st experiment, read-out: MBC without PB.
In assay [18] the test system is A. baumannii J2. The assay is described as above. The format is cell-based, Acinetobacter baumannii. Particulars: Acinetobacter baumannii, J2, A. baumannii J2; without polymyxin B; preliminary MBC; 1st experiment; read-out: MBC without PB.
Assay [19] relates to A. baumannii A489. Described as above. It counts as cell-based, Acinetobacter baumannii. Particulars: Acinetobacter baumannii, A489, A. baumannii A489, without polymyxin B, 1st experiment, read-out: MBC without PB.
The mark [20] stands for this setting: Acinetobacter spp. H064200250, 1st experiment.

Converted amounts (≈) assume the structure as drawn. Like-named read-outs stand apart in the source and are kept apart here.

As for `NCC[C@H](O)C(=O)N[C@@H]1C[C@H](N)[C@@H](O[C@H]2O[C@H](CN)[C@@H](O)[C@H](O)[C@H]2O)[C@H](O)[C@H]1O[C@H]1O[C@H](CO)[C@@H](O)[C@H](N)[C@H]1O` [Amikacin, reference compound], the “MIC +0.06 μg/ml PB” value with A. baumannii A329 [1] (A. baumannii A329, +0.06 μg/ml polymyxin B, 2nd experiment, visual reading) worked out at 128 mg/L; with A. baumannii A473 [5] (A. baumannii A473, +0.06 μg/ml polymyxin B, 2nd experiment, visual reading), 128 mg/L; in the assay on A. baumannii A387 [7] (A. baumannii A387, +0.06 μg/ml polymyxin B, 2nd experiment, visual reading), 128 mg/L. In addition, the MIC ratio without/with polymyxin B in the assay with A. baumannii A472 [2] (A. baumannii A472, ratio MIC without PB to MIC + PB, PB […], 2nd experiment) was at least 4 mg/L. Moreover, the MBC in the assay with A. baumannii ATCC 19606 (2nd experiment) stood at 16 mg/L (≈ 27.3 µM); in the assay on A. baumannii ATCC 19606 (1st experiment), 16 mg/L (≈ 27.3 µM); in [6] it was 16 mg/L (≈ 27.3 µM); in assay [8] (Acinetobacter spp. H064200250 (OXA51), 2nd experiment), 8 mg/L (≈ 13.7 µM); in assay [8] (setting [20]) it was 16 mg/L (≈ 27.3 µM). Further, the “fold greater activity (fold lower MIC) in presence of polymyxin B compared to without polymyxin B” value in assay [3] was “not significantly affected”. In addition, the “MIC +[…] PB” value in [3] (A. baumannii NCTC 13301, +[…] polymyxin B, 2nd experiment, visual reading) came out at 128 mg/L (≈ 219 µM). Besides, the MIC in assay [4] (Acinetobacter spp. H064200250 (OXA51), 2nd experiment, visual reading) was found to be 8 mg/L (≈ 13.7 µM); in [4] (setting [20]) it was 16 mg/L (≈ 27.3 µM); in [9] it was 16 mg/L (≈ 27.3 µM).

With `Cc1c(-c2ccc(N)c(F)c2)c(F)cn2c(=O)c(C(=O)O)cc(C3CC3)c12` [Compound 17, 8-(3-fluoro-4-amino-phenyl)-1-cyclopropyl-7-fluoro-9-methyl-4-oxo-quinolizine-3-carboxylic acid], the MIC was 8 mg/L (≈ 21.6 µM) in the assay with A. baumannii A329 [1] (Acinetobacter baumannii, A329, A. baumannii A329, without polymyxin B, 1st experiment, read-out: MIC without PB); 4 mg/L (≈ 10.8 µM) in the assay on A. baumannii A472 [2] (Acinetobacter baumannii, A472, A. baumannii A472, without polymyxin B, 1st experiment, read-out: MIC without PB); 4 mg/L (≈ 10.8 µM) with A. baumannii J2 [10]; 8 mg/L (≈ 21.6 µM) in the assay with A. baumannii A489 [13]; 1 to 16 mg/L (≈ 2.7 to 43.2 µM) in assay [3] (Acinetobacter baumannii, read-out: MIC range without PB 01-10-2008 n = 8, without polymyxin B, 1st experiment, 8 strains); 8 mg/L (≈ 21.6 µM) in assay [4] (setting [20]). Also, the minimal inhibitory concentration (MIC) in the assay on A. baumannii A473 [5] (Acinetobacter baumannii, A473, A. baumannii A473, without polymyxin B, 1st experiment, read-out: MIC without PB) amounted to 4 mg/L (≈ 10.8 µM); with A. baumannii A401 [15], 4 mg/L (≈ 10.8 µM); in the assay with A. baumannii A387 [7] (Acinetobacter baumannii, A387, A. baumannii A387, without polymyxin B, 1st experiment, read-out: MIC without PB), 1 mg/L (≈ 2.7 µM). The MBC with A. baumannii A329 [11] was 8 mg/L (≈ 21.6 µM); in the assay on A. baumannii ATCC 19606 (1st experiment) it was 1 mg/L (≈ 2.7 µM); in the assay with A. baumannii A387 [12], 2 mg/L (≈ 5.4 µM); with A. baumannii A473 [14], 4 mg/L (≈ 10.8 µM); with A. baumannii A401 [16] it was 8 mg/L (≈ 21.6 µM); in the assay on A. baumannii A472 [17] it was 4 mg/L (≈ 10.8 µM). Further, the MBC in [8] (setting [20]) turned out to be 8 mg/L (≈ 21.6 µM); in the assay with A. baumannii J2 [18], 4 mg/L (≈ 10.8 µM); with A. baumannii A489 [19] it was 4 mg/L (≈ 10.8 µM).
